# Test results: patent publication US20060269978A1, “Method and device for monitoring platelet function” (priority 2005, published 2006)
# Test system: platelet function
# Test: Platelet Reactivity Test (PRT) on fingerprick whole blood of volunteers before and after taking aspirin
# Assay type: in vivo
# Conditions: human volunteers after taking aspirin, single-passageway cartridge with spring, most volunteers
# Description: The PRT test is used to activate platelet gel formations using a small (20 microliter) whole blood sample to help identify proper platelet function in the absence of platelet drug therapy and to identify inhibited platelet function in the presence of platelet drug therapy. The test is performed by running a small quantity of blood through a channel restriction that will induce the formation of platelet gels and trap them in a focused area similar to the way platelets are activated and focused in the body.
# In use, the cartridge is secured in instrument 400 and preheated for three to five minutes at 33C. The cartridge is then removed from the instrument 400 and 40 μl of blood previously taken from a subject by a pinprick is placed in capillary tube 370, which is already bonded to the capillary tube port 200. The cartridge 150 is then placed back in the instrument 400. The instrument 400 is maintained at 33C. In a preferred embodiment, the cartridge 150 has a bar code that is read by the instrument 400. The instrument 400 will reject the cartridge 150 if the cartridge has been out of the instrument for more than two minutes after the preheating step.
# […] A gel forms and the pumps 350, 351 operate until an end point is reached. […]
smiles,measurement,value
CC(=O)Oc1ccccc1C(=O)O [aspirin],PRT (platelet reactivity time),greater than 150 seconds
